Data as given in ChEMBL document CHEMBL1201862, “PubChem BioAssay data set” (2004).
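Compound exposure: 48 hours, 5 concentrations, 96-well plates. GI50 marks 50% less growth.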 Active and inactive are the calls of the source. Rule as the data show it: active = GI50 up to about 1.1 µM and inactive = higher.

Columns and labels:
Test in all cases: DTP human tumour cell line panel, 48 h
BT-549 = tested on: BT-549
CAKI-1 = tested on: CAKI-1
HOP-92 = tested on: HOP-92
HT-29 = tested on: HT-29
Hs-578T = tested on: Hs-578T
LOX IMVI = tested on: LOX IMVI
MDA-MB-231 = tested on: MDA-MB-231
MOLT-4 = tested on: MOLT-4
NCI-H23 = tested on: NCI-H23
NCI-H522 = tested on: NCI-H522
NCI/ADR-RES = tested on: NCI/ADR-RES
OVCAR-5 = tested on: OVCAR-5
PC-3 = tested on: PC-3
RXF 393 = tested on: RXF 393
SK-OV-3 = tested on: SK-OV-3
COLO 205 = tested on: COLO 205
HCC 2998 = tested on: HCC 2998
NCI-H226 = tested on: NCI-H226
SF-539 = tested on: SF-539

Measured: GI50

COc1ccc(C)cc1N1C(=O)C2ON(Cc3ccc(CC(N)=O)cc3)C(c3c4ccccc4c(Cl)c4ccccc34)C2C1=O (stereo not given)
inactive: BT-549 24.1 µM | CAKI-1 25.8 µM | HOP-92 32.6 µM | HT-29 20.3 µM | Hs-578T 41.9 µM | LOX IMVI 22.8 µM | MDA-MB-231 19.9 µM | MOLT-4 24.9 µM | NCI-H23 29.3 µM | NCI-H522 32.1 µM | NCI/ADR-RES 26.1 µM | OVCAR-5 23.6 µM | PC-3 28.1 µM | RXF 393 13.3 µM | SK-OV-3 31.8 µM

CC(=O)Oc1c2oc3cc(O)c(O)cc3c2c(OC(C)=O)c2oc3cc(O)c(O)cc3c12 [POLYOZELLIN]
inactive: BT-549 17.1 µM | CAKI-1 29.2 µM | COLO 205 15.4 µM | HCC 2998 16.9 µM | HT-29 26.4 µM | Hs-578T 12.2 µM | LOX IMVI 24.5 µM | MOLT-4 2.64 µM | NCI-H226 19.2 µM | NCI-H23 2.39 µM | NCI-H522 10.3 µM | NCI/ADR-RES 35.3 µM | OVCAR-5 25.5 µM | PC-3 19.8 µM | RXF 393 18.1 µM | SF-539 23 µM | SK-OV-3 20.8 µM

CCOC(=O)C(NC(=O)OC(C)(C)C)C(=O)OCC
inactive: BT-549 > 100 µM | CAKI-1 > 100 µM | COLO 205 > 100 µM | HCC 2998 > 100 µM | HOP-92 > 100 µM | HT-29 > 100 µM | Hs-578T > 100 µM | MOLT-4 > 100 µM | NCI-H23 > 100 µM | NCI-H522 > 100 µM | NCI/ADR-RES > 100 µM | OVCAR-5 > 100 µM | PC-3 > 100 µM | RXF 393 > 100 µM | SK-OV-3 > 100 µM

CC1(C)C[C@H](O)[C@H](O)[C@]23C(=O)O[C@H](O)[C@H]2C(C=O)=CC[C@@H]13
inactive: BT-549 > 100 µM | CAKI-1 > 100 µM | COLO 205 > 100 µM | HCC 2998 > 100 µM | HT-29 > 100 µM | Hs-578T > 100 µM | LOX IMVI > 100 µM | MDA-MB-231 > 100 µM | MOLT-4 > 100 µM | NCI-H226 > 100 µM | NCI-H23 > 100 µM | NCI-H522 > 100 µM | NCI/ADR-RES > 100 µM | PC-3 > 100 µM | RXF 393 > 100 µM | SF-539 > 100 µM

Cc1ccc(S(=O)(=O)NN=C2C(C)(C)CC2(C)C)cc1
inactive: CAKI-1 > 100 µM | COLO 205 > 100 µM | HCC 2998 > 100 µM | HOP-92 > 100 µM | HT-29 > 100 µM | Hs-578T > 100 µM | LOX IMVI > 100 µM | MDA-MB-231 > 100 µM | MOLT-4 > 100 µM | NCI-H226 > 100 µM | NCI-H23 > 100 µM | NCI-H522 > 100 µM | NCI/ADR-RES > 100 µM | OVCAR-5 > 100 µM | PC-3 > 100 µM | RXF 393 > 100 µM | SF-539 > 100 µM | SK-OV-3 > 100 µM

CC(C)[C@H]1NC(=O)[C@H]2N=C(S[C@H]2C)[C@@H]2CCCN2C(=O)[C@H](Cc2ccccc2)NC(=O)[C@@H]2CSC(=N2)[C@@H](Cc2ccccc2)NC(=O)[C@@H]2CSC1=N2
inactive: BT-549 > 50 µM | CAKI-1 > 50 µM | COLO 205 16.1 µM | HCC 2998 10.7 µM | HT-29 25.8 µM | Hs-578T 15.1 µM | LOX IMVI 29.7 µM | MDA-MB-231 > 50 µM | MOLT-4 11.6 µM | NCI-H226 21 µM | NCI-H23 40.3 µM | NCI-H522 12.2 µM | NCI/ADR-RES 19.7 µM | OVCAR-5 > 50 µM | PC-3 14.6 µM | RXF 393 15.9 µM | SF-539 22.3 µM | SK-OV-3 35.5 µM

N#CC1=C(N2CCCC2)NC(=O)CC1=O
inactive: CAKI-1 > 100 µM | COLO 205 > 100 µM | HCC 2998 > 100 µM | HOP-92 > 100 µM | HT-29 > 100 µM | Hs-578T > 100 µM | LOX IMVI > 100 µM | MDA-MB-231 > 100 µM | MOLT-4 > 100 µM | NCI-H226 > 100 µM | NCI-H23 > 100 µM | NCI-H522 > 100 µM | NCI/ADR-RES > 100 µM | OVCAR-5 > 100 µM | PC-3 > 100 µM | RXF 393 > 100 µM | SF-539 > 100 µM | SK-OV-3 > 100 µM

Cc1nc(Nc2ccc(Cl)c(Cl)c2)sc1C(=O)/C=C/c1ccc2c(c1)OCO2
inactive: BT-549 21.5 µM | CAKI-1 16.5 µM | COLO 205 24.7 µM | HCC 2998 30.2 µM | HT-29 36.8 µM | LOX IMVI 19.4 µM | MOLT-4 14.9 µM | NCI-H226 25.9 µM | NCI-H23 20 µM | NCI/ADR-RES 34.4 µM | OVCAR-5 88.7 µM | RXF 393 15.9 µM | SF-539 23.7 µM | SK-OV-3 18.7 µM

COc1c(Br)cc2ccccc2c1-c1c(OC)c(Br)cc2ccccc12
inactive: CAKI-1 > 100 µM | COLO 205 > 100 µM | HCC 2998 > 100 µM | HOP-92 > 100 µM | HT-29 > 100 µM | Hs-578T > 100 µM | LOX IMVI > 100 µM | MDA-MB-231 > 100 µM | MOLT-4 6.32 µM | NCI-H226 > 100 µM | NCI-H23 > 100 µM | NCI-H522 74.6 µM | NCI/ADR-RES > 100 µM | OVCAR-5 > 100 µM | PC-3 95.9 µM | RXF 393 > 100 µM | SF-539 > 100 µM | SK-OV-3 > 100 µM

O=C1N[C@H]2c3c(Cl)sc(Cl)c3/C(=N/O)[C@H]2O1
inactive: BT-549 > 100 µM | CAKI-1 > 100 µM | COLO 205 > 100 µM | HCC 2998 > 100 µM | HT-29 > 100 µM | MDA-MB-231 > 100 µM | MOLT-4 > 100 µM | NCI/ADR-RES > 100 µM | OVCAR-5 > 100 µM | PC-3 > 100 µM | RXF 393 > 100 µM | SF-539 88.1 µM | SK-OV-3 > 100 µM

CN(CCN(C)C(=S)NN)C(=S)NN
inactive: BT-549 > 100 µM | CAKI-1 > 100 µM | COLO 205 > 100 µM | HCC 2998 > 100 µM | HT-29 > 100 µM | Hs-578T > 100 µM | LOX IMVI > 100 µM | MDA-MB-231 > 100 µM | MOLT-4 > 100 µM | NCI-H23 > 100 µM | NCI-H522 > 100 µM | OVCAR-5 > 100 µM | PC-3 > 100 µM | SK-OV-3 > 100 µM

CN1Cc2ccccc2S(=O)(=O)n2cccc2C1=O
inactive: BT-549 > 100 µM | CAKI-1 > 100 µM | COLO 205 > 100 µM | HOP-92 > 100 µM | Hs-578T > 100 µM | LOX IMVI > 100 µM | MDA-MB-231 > 100 µM | MOLT-4 > 100 µM | NCI-H522 > 100 µM | OVCAR-5 > 100 µM | PC-3 > 100 µM | RXF 393 > 100 µM | SF-539 > 100 µM | SK-OV-3 > 100 µM
